Results as given in patent US20100065444A1, “PACK CONTAINING SOFT CAPSULES” (priority 2007, published 2010).

Legend:
Assay type in all cases: physicochemical
[1] = Stability of multivitamin soft capsules in PVC/PVDC-aluminium blister, 40° C./75% RH
Text: (§1) Multivitamin soft capsules (active-compound composition and capsule shell as described below) are introduced individually into a thermoformed cavity film made from PVC 250 μm+40 g/m^2 of PVDC and heat-sealed with aluminium foil (20 μm) and into a resealable container in/on the inside wall(s) of which at least one channel former is embedded, at least over part of the area, together with at least one absorbent (type: M-3006-16 Activ-Vial) in the inside walls of which a molecular sieve having a capacity of 1.92 g is embedded.
(§2) The blisters and containers containing the multivitamin soft capsules are stored at 40° C. and 75% relative humidity (RH), removed from storage after predetermined times, assessed visually with respect to their appearance and investigated analytically with respect to the amounts of active compound present. The results are compiled in Tables 1 and 2.

[2] = Stability of multivitamin soft capsules in container with channel former and absorbent embedded in the inside walls, 40° C./75% RH
Text: as §1, §2

[3] = Stability of multivitamin soft capsules in container with channel former and absorbent embedded in the inside walls, 30° C./65% RH
Description: Multivitamin soft capsules (active-compound composition and capsule shell as described below) are introduced into a resealable container in/on the inside wall(s) of which at least one channel former is embedded, at least over part of the area, together with at least one absorbent (type: M-3006-16 Activ-Vial) in the inside walls of which a molecular sieve having a capacity of 1.92 g is embedded.
The multivitamin soft capsules are stored at 30° C. and 65% relative humidity (RH), removed from storage after predetermined times, assessed visually with respect to their appearance and investigated analytically with respect to the amounts of active compound present.

[4] = Multivitamin soft capsule batch 9018401, 3 months
[5] = Multivitamin soft capsule batch 9018401, Start
[6] = Multivitamin soft capsule batch 9018802, 6 months
[7] = Multivitamin soft capsule batch 9018802, Start
[8] = Multivitamin soft capsule batch GD 06 0045, 6 months
[9] = Multivitamin soft capsule batch GD 06 0045, Start

Row | Compound | amount of active compound present [1, 4] [mg/capsule] | amount of active compound present, % of start [1, 4] [%] | amount of active compound present [1, 5] [mg/capsule] | amount of active compound present, % of start [1, 5] [%] | amount of active compound present [2, 6] [mg/capsule] | amount of active compound present, % of start [2, 6] [%] | amount of active compound present [2, 7] [mg/capsule] | amount of active compound present, % of start [2, 7] [%] | amount of active compound present [3, 8] [mg/capsule] | amount of active compound present, % of start [3, 8] [%] | amount of active compound present [3, 9] [mg/capsule] | amount of active compound present, % of start [3, 9] [%]
1 | Nc1nc2ncc(CNc3ccc(C(=O)N[C@@H](CCC(=O)O)C(=O)O)cc3)nc2c(=O)[nH]1 [Folic acid] | 0.57 | 92 | 0.62 | 100 | 0.520 | 87 | 0.60 | 100 | 0.603 | 104 | 0.581 | 100
2 | CC1=C(/C=C/C(C)=C/C=C/C(C)=C/C=C/C=C(C)/C=C/C=C(C)/C=C/C2=C(C)CCCC2(C)C)C(C)(C)CCC1 [β-Carotene] | – | – | – | – | – | – | – | – | 2.0 | 87 | 2.3 | 100
3 | CC(C)(CO)[C@@H](O)C(=O)NCCCO [Dexpanthenol] | 9.7 | 72 | 13.5 | 100 | 12.8 | 96 | 13.3 | 100 | – | – | – | –
4 | Cc1cc2nc3c(=O)[nH]c(=O)nc-3n(C[C@H](O)[C@H](O)[C@H](O)CO)c2cc1C [Riboflavin] | – | – | – | – | – | – | – | – | 2.23 | 107 | 2.09 | 100
5 | Cc1ncc(CO)c(CO)c1O.Cl [Pyridoxine*HCL] | – | – | – | – | – | – | – | – | 3.39 | 94 | 3.60 | 100
6 | CC(=O)Oc1c(C)c(C)c2c(c1C)CCC(C)(CCC[C@H](C)CCC[C@H](C)CCCC(C)C)O2 (some centres unmarked) [Tocopherol acetate] | – | – | – | – | – | – | – | – | 19.8 | 99 | 20.0 | 100
7 | Cyanocobalamine | 0.171 | 86 | 0.199 | 100 | 0.173 | 82 | 0.21 | 100 | 0.0158 | 97 | 0.0163 | 100
8 | O=C1O[C@H]([C@@H](O)CO)C(O)=C1O [Ascorbic acid] | 159 | 76 | 209 | 100 | 210 | 99 | 213 | 100 | 115.0 | 95 | 120.5 | 100
9 | O=C(O)CCCC[C@@H]1SC[C@@H]2NC(=O)N[C@@H]21 [Biotin] | – | – | – | – | – | – | – | – | 0.185 | 105 | 0.176 | 100
10 | Cc1ncc(C[n+]2csc(CCO)c2C)c(N)n1.Cl.[Cl-] [Thiamine*HCL] | 17.1 | 87 | 19.7 | 100 | 19.3 | 98 | 19.6 | 100 | – | – | – | –
11 | CC(C)(CO)[C@@H](O)C(=O)NCCC(=O)[O-].CC(C)(CO)[C@@H](O)C(=O)NCCC(=O)[O-].[Ca+2] [Calcium panthotenate] | – | – | – | – | – | – | – | – | 14.9 | 96 | 15.6 | 100
12 | NC(=O)c1cccnc1 [Nicotinamide] | – | – | – | – | – | – | – | – | 20.1 | 98 | 20.6 | 100
